Source: paper PMC9821293, “Anammox Bacterial S-Adenosyl-L-Methionine Dependent Methyltransferase Crystal Structure and Its Interaction with Acyl Carrier Proteins” (International Journal of Molecular Sciences, 2023)

Biological target: T1, AmxMT1 (Candidatus Brocadia fulgida, UniProt A0A0M2USF2)
T1 construct: gene BROFUL_02287; five N-terminal residues removed; C-terminal TEV site and 6xHis tag, His tag cleaved; codon-optimised, pET28b, E. coli C43(DE3) with pGro7; one molecule in the asymmetric unit
T1 sequence (A0A0M2USF2 6-354): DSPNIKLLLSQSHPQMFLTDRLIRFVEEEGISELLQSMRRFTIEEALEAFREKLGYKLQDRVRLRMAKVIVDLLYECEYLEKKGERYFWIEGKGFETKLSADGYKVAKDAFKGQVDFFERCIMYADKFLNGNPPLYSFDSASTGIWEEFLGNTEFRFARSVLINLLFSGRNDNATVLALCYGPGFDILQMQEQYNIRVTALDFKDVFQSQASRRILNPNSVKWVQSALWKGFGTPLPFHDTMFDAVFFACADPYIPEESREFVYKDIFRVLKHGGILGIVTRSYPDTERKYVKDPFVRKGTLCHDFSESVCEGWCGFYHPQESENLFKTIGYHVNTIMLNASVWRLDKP
Test: X-ray crystal structure of the complex (SAD phasing, molecular replacement)
Type: binding
Settings: SAM (2.25 mM) added for crystallization, SAH found in the crystal; 5 mM DTT; HEPES pH 7.0, PEG 2000, 20 °C; cosubstrate pocket between core domain and inserted helix

With `Nc1ncnc2c1ncn2[C@@H]1O[C@H](CSCC[C@H](N)C(=O)O)[C@@H](O)[C@H]1O` [SAH] the “X-ray crystal structure of the complex (SAD phasing, molecular replacement)” value was “S-adenosyl-L-homocysteine (SAH) is located in the pocket between the core domain and inserted helix”.
